Earlier results in patent publication US6660296B2, “Sustained-release microgranules containing diltiazem as active principle” (Laboratories des Produits Ethiques Ethypharim, priority 1995, dated 2003).

Conditions: neutral or basic pH; Diltiazem or its pharmaceutically acceptable salts

Solubility: sparingly soluble
Compound: COc1ccc([C@@H]2Sc3ccccc3N(CCN(C)C)C(=O)[C@@H]2OC(C)=O)cc1 [Diltiazem]
